Measurements reported in patent US20040259142A1, “Products and methods” (Imperial College Innovations Limited, priority 2003, published 2004).
Each block holds one compound with its values, some of them ahead of it.

Tests used:
interferon γ (IFN-γ) = target: T1, interferon γ (IFN-γ) (Homo sapiens, UniProt P01579); test: interferon γ binding to lipid-linked oligosaccharide array on nitrocellulose
T1 construct: purchased Sigma; host or cells: Escherichia coli
T1 sequence (P01579 24-166): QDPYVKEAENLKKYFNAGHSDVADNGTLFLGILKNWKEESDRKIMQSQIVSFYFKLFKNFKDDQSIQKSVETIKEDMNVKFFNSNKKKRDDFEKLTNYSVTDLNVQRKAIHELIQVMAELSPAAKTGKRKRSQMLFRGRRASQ
From the text: (§1) The lipid-linked oligosaccharides (in chloroform:methanol:water, 25:25:8 v/v) were applied by jet spray with a sample applicator (Linomat IV, Camag, Switzerland) as 2 mm bands for ‘miniarray’, or as […] spots for ‘microarray’ format, onto 0.45 μm nitrocellulose or 0.2 μm PVDF membranes (both from Bio-Rad, Hemel Hempstead, UK), or aluminium-backed silica gel plates (Merck). When fluorescent NGLs were applied onto the membranes, and examined directly under UV light, 1-2 pmol was clearly visible above the background on the PVDF, whereas on nitrocellulose, 5 pmol was required due to a high fluorescent background. For detection, therefore, the fluorescent NGLs were printed onto PVDF membranes; the non-fluorescent lipid-linked oligosaccharides were printed onto silica gel plates and detected with primulin stain.
(§2) For cytokine/chemokine-binding experiments, the membranes were blocked for 1 h with 3% (w/v) BSA in 10 mM Tris-HCl buffer containing 150 mM NaCl, 2 mM CaCl2 and 0.8 mM MgCl2 (TNCM), overlaid with INFγ or RANTES at 1 μg per ml diluted in TNCM/BSA, incubated for 16 h at 4° C.
(§3) The membranes were washed four times, for 30 min with 10 mM Tris-HCl buffer containing 20 mM NaCl, 5 mM CaCl2 and 2 mM MgCl2 (TNCM-L) to minimize elution of the bound proteins^31. […] Carbohydrate-binding experiments with NGLs resolved by TLC were performed as described^12.

chemokine RANTES = target: T2, chemokine RANTES (Homo sapiens, UniProt P13501); test: RANTES binding to lipid-linked oligosaccharide array on nitrocellulose; conditions: array IDs 1-30 at 10 pmol per spot
T2 construct: purchased R&D systems; host or cells: Escherichia coli
T2 sequence (P13501 24-91): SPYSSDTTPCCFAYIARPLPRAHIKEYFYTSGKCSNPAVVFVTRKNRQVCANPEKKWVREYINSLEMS
From the text: as §1, §2, §3

monoclonal antibody C-14 = test: C-14 antibody binding to lipid-linked oligosaccharide array on nitrocellulose; design: species or system murine; conditions: array IDs 1-30 on nitrocellulose, 10 pmol per spot
From the text: as §1
(§4) Experiments were carried out at ambient temperature unless stated otherwise. The dilutions of the antibodies used were those recommended by the manufacturers or providers. Concentrations where known are indicated. For antibody-binding experiments, the membranes were ‘blocked’ for 1 h with 3% (w/v) bovine serum albumin (BSA) in phosphate buffered saline (10 mM phosphate buffer containing 150 mM NaCl) pH 7.4 (PBS), and overlaid with for 2 h with the antibodies diluted in phosphate buffered saline containing 3% BSA (PBS/BSA). […]

[1] = target: T3, recombinant soluble L-selectin IgG chimera (Homo sapiens, UniProt P14151); test: L-selectin binding to lipid-linked oligosaccharide array on nitrocellulose; conditions: array IDs 1-30 on nitrocellulose, 10 pmol per spot
T3 construct: recombinant soluble L-selectin IgG chimera; made in house; host or cells: transfected Chinese hamster ovary cells (provided by Dr Gray Shaw, Genetics Institute)
T3 sequence (P14151 39-332 limits assumed): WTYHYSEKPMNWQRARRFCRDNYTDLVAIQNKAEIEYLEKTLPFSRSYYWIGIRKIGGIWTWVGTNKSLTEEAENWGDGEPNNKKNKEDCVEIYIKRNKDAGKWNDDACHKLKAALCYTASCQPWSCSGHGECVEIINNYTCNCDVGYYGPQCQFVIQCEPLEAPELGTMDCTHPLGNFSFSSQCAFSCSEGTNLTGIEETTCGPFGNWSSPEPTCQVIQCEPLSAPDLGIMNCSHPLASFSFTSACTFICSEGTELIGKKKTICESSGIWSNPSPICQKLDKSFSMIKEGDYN
From the text: as §1
Selectin-binding experiments were carried out as above except that the membranes were ‘blocked’ 1% (w/v) casein in 10 mM Tris-HCl buffer pH 7.4 containing 50 mM CaCl2 and 150 mM NaCl (TBS/Ca) and overlaid for 2 h with L-selectin (1 μg/ml pre-complexed^42 with biotinylated anti-human IgG from Vector), or E-selectin (at 1 μg/ml) in TBS/Ca. Binding of L-selectin was detected by overlaying with HRP-conjugated streptavidin (Sigma), 10 μg/ml, in TBS/Ca containing 1% casein. Binding of E-selectin was detected by overlaying with biotinylated anti-human IgM (Sigma), 5 μg/ml, followed by the HRP-conjugated streptavidin.

[2] = test system: monoclonal antibody HNK-1 (anti-HNK-1); test: anti-HNK-1 binding to lipid-linked oligosaccharide arrays on nitrocellulose; conditions: array IDs 1-30 on nitrocellulose, 10 pmol per spot
From the text: as §1, §4

TSG-6 = TSG-6 (Homo sapiens, UniProt P98066); test: TSG-6 binding to HA and HA NGL on nitrocellulose-coated FastSlide; conditions: 2 mm bands on FastSlide, DAB colour, FIG. 9
From the text: NGL samples in organic-based solvent mixture (chloroform/methanol/water 25:25:8, by vol), and also polysaccharides, glycosaminoglycans (GAGs) and glycoproteins in water, were arrayed with N2-assisted jet spray as 1-2 mm bands or 150 μm spots.
Binding to the arrayed samples was detected using biotinylated antibodies directed to the proteins being investigated, followed by conventional ELISA-DAB colour reaction or by using CyS-labelled streptavidin.
Similarly, different amounts of hyaluronic acid polysaccharide (HA) (5 to 500 ng) and its oligosaccharide derived NGL, HA 8mer-DHPE (0.05 to 5 pmol), were applied as 2 mm bands onto a nitrocellulose coated FastSlide. The interactions of TSG-6 (a protein which can bind to the HA) with the carbohydrate-containing molecules on the support material, HA and the HA NGL, are shown in FIG. 9.

[3] = test system: anti-SSEA-1 monoclonal antibody; test: anti-SSEA-1 binding to lipid-linked oligosaccharide arrays on membranes; design: species or system murine; conditions: array IDs 1-30 on nitrocellulose, 10 pmol per spot
From the text: as §1, §4

[4] = test system: anti-L5 monoclonal antibody; test: anti-L5 binding to lipid-linked oligosaccharide arrays on nitrocellulose; design: species or system rat; conditions: array IDs 1-30 on nitrocellulose, 10 pmol per spot
From the text: as §1, §4

[5] = array IDs 1-30 printed at 1 pmol per spot
[6] = array IDs 1-30 at 10 pmol per spot

TSG-6, sequence (P98066 18-277, species assumed): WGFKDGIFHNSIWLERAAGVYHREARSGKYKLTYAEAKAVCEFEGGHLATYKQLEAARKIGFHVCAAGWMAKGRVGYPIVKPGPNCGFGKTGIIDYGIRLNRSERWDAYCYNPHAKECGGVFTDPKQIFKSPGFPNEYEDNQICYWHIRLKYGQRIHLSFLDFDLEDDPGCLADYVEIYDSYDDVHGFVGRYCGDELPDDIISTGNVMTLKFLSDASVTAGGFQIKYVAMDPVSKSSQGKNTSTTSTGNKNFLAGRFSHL

IFN-γ binding (interferon γ (IFN-γ); [5]): weak binding
Compound: 3′,6-SU-Le^x-5 [ID 17]

IFN-γ binding (interferon γ (IFN-γ); [5]): weak binding
Compound: 3′-SU-Le^x-5 [ID 16]

binding of C-14 antibody (monoclonal antibody C-14): bound
Compound: CC(=O)NC1C(OC2C(O)C(CO)OC(OC3C(CO)OC(O)C(O)C3O)C2O)OC(CO)C(OC2OC(CO)C(O)C(O)C2OC2OC(C)C(O)C(O)C2O)C1OC1OC(C)C(O)C(O)C1O (stereo not shown) [ID 12, lacto-N-neo-difucohexaose I]

L-selectin binding [1]: binding
IFN-γ binding (interferon γ (IFN-γ); [5]): clear preference
Compound: O=C(O)C1=C[C@H](O)[C@@H](OS(=O)(=O)O)[C@H](O[C@H]2[C@H](O)[C@@H](NS(=O)(=O)O)[C@@H](O)O[C@@H]2COS(=O)(=O)O)O1 [ID 28, HS/HEP 2mer]

binding of anti-HNK-1 [2]: bound
L-selectin binding [1]: binding
IFN-γ binding (interferon γ (IFN-γ); [6]): additional or increased binding signals
RANTES binding (chemokine RANTES): additional or increased binding signals
Compound: HNK-1 [ID 20]

L-selectin binding [1]: binding
Compound: Man5-phosphate [ID 21]

The remaining lines, values behind:

Compound: 6′-SU-3′-SA-Le^x5 [ID 19]
IFN-γ binding (interferon γ (IFN-γ); [6]): additional or increased binding signals
RANTES binding (chemokine RANTES): additional or increased binding signals

Compound: CC(=O)NC1C(O)CC(OC2C(O)C(CO)OC(OC3C(CO)OC(OC4C(O)C(CO)OC(OC5C(CO)OC(O)C(O)C5O)C4O)C(NC(C)=O)C3OC3OC(C)C(O)C(O)C3O)C2O)(C(=O)O)OC1C(O)C(O)CO (stereo not shown) [ID 14, 3′-SA-Le^x-5]
L-selectin binding [1]: weak

Compound: hyaluronic acid [HA polysaccharide]
sensitivity of detection of TSG-6 binding (TSG-6): nanograms

Compound: lacto-N-fucopentaose III [ID 10]
binding of anti-SSEA-1 [3]: bound
binding of anti-L5 [4]: bound
